Experimental findings from patent US20260234144A1 (TAY THERAPEUTICS LIMITED, priority 2023, published 2026) are described below.

A value given as a limit tells only on which side of the number the result lay.

The experiment deals with R223X stop codon in the mutated luciferase gene, ADXC8 luciferase reporter cell line. Description: cells. The class given is cell-based. The note with it: ADXC8 cells, 24 hours; for EC (100% of 200 uM G418 response) / Emax: 24 h; for EC (100% of 200 uM G418 response): read-out: pC100%, negative logarithm of the concentration giving the same response as 200 μM G418; for pC100%: negative logarithm of the concentration giving the same response as 200 μM G418; for Emax: read-out: Fold Over Control, maximum fold response relative to 200 μM G418.

As to `[2H]C([2H])([2H])N1CCC(Nc2nc(N)c3c(C)cc(C)nc3n2)CC1` [Example 584], the EC (100% of 200 uM G418 response) was in the range of 1 to 10 µM.
Consider `CNc1nc(NC2CCCN3CCCC23)nc2nc(C)cc(C)c12` (stereo not shown) [Example 597], for which the pC100% entry is “++ (pC100% > 5.0 ≤ 6.0)”.
As to `CNc1nc(N[C@H]2CN(C)C[C@H]2F)nc2nc(C)c3c(c12)CCC3` [Example 366], the Emax is 100 to 3000% and the EC (100% of 200 uM G418 response) was 0.1 to 1 µM.
With `CNc1nc(N[C@H]2CN[C@H](C(F)F)C2)nc2nc(C)cc(C)c12` [Example 407], the EC (100% of 200 uM G418 response) was 1 to 10 µM.
Regarding `CN1CCC(Nc2nc(N)c3ccc(-c4cncn4C)nc3n2)CC1` [Example 114], the Emax is 0 to 100% and the EC (100% of 200 uM G418 response) is above 100 µM.
On the same counts, the results for `Cc1cc(C)c2c(N)nc(NCC3CCN(C4CC4)C3)nc2n1` (stereo not shown) [Example 157] are 100 to 3000% and 1 to 10 µM.
On the same counts, the results for `CNS(=O)(=O)c1ccc(CN2CCC(Nc3nc(N)c4c(C)c5c(nc4n3)CCC5)CC2)cc1` [Example 666] are 100 to 3000% and 1 to 10 µM.
On the same counts, the results for `Cc1cc(C)c2c(N)nc(NC3C4CNC[C@@H]43)nc2n1` (stereo partly shown) [Example 203] are 100 to 3000% and 1 to 10 µM.
Take `CNc1nc(N[C@H]2CNCC[C@H]2O)nc2nc(C)cc(C)c12` [Example 606]: the EC (100% of 200 uM G418 response) was in the range of 1 to 10 µM.
Regarding `CCNc1nc(N[C@H]2CN(C)C[C@@H]2F)nc2nc(C)cc(C)c12` [Example 393], the Emax is 100 to 3000% and the EC (100% of 200 uM G418 response) was 1 to 10 µM.
On the same counts, the results for `CNc1nc(N[C@H]2CNC[C@@H]2F)nc2nc(C)c3c(c12)CCC3` [Example 346] are 100 to 3000% and 0.1 to 1 µM.
On the same counts, the results for `Cc1cc(-c2ccccc2)c2c(N)nc(NC3CCN(C)CC3)nc2n1` [Example 13, 7-methyl-N^2-(1-methylpiperidin-4-yl)-5-phenylpyrido[2,3-d]pyrimidine-2,4-diamine] are 0 to 100% and above 31.6 µM.
On the same counts, the results for `Cc1cc(C)c2c(N)nc(NC3CCN(Cc4cscn4)CC3)nc2n1` [Example 461] are 100 to 3000% and 1 to 10 µM.
Take `CN1CCC(Nc2nc(N)c3ccc(C4CCCC4)nc3n2)CC1` [Example 310]: the EC (100% of 200 uM G418 response) is 1 to 10 µM.
On to `Cc1cc(C)c2c(N(C)C)nc(NC3CCN(C)CC3)nc2n1` [Example 262], for which the Emax fell in the range of 100 to 3000% and the EC (100% of 200 uM G418 response) lay in the range of 10 to 100 µM.
On the same counts, the results for `CNc1nc(N[C@H]2CN(Cc3ccccc3)C[C@H]2F)nc2nc(C)cc(C)c12` [Example 621] are 100 to 3000% and 10 to 100 µM.
On the same counts, the results for `Cc1c2c(nc3nc(NC4CCN(Cc5cccc(S(N)(=O)=O)c5)CC4)nc(N)c13)CCC2` [Example 665] are 100 to 3000% and 1 to 10 µM.
On the same counts, the results for `CN1CCC(Nc2nc(N)c3ccc(-c4ccccc4O)nc3n2)CC1` [Example 106] are 0 to 100% and above 100 µM.
For the compound `Cc1cc(C)c2c(NCCn3ccnc3)nc(NC3CCN(C)CC3)nc2n1` [Example 316], the Emax fell in the range of 0 to 100% and the EC (100% of 200 uM G418 response) is above 31.6 µM.
On the same counts, the results for `CN1CCC(Nc2nc(N)c3cc(OC4COC4)cnc3n2)CC1` [Example 28, N^2-(1-methylpiperidin-4-yl)-6-(oxetan-3-yloxy)pyrido[2,3-d]pyrimidine-2,4-diamine] are 0 to 100% and above 100 µM.
On the same counts, the results for `CNC(=O)c1cccc(CN2CCC(Nc3nc(N)c4c(C)cc(C)nc4n3)CC2)c1` [Example 477] are 100 to 3000% and 10 to 100 µM.
For `COC(C)c1ccnc2nc(NC3CCN(C)CC3)nc(N)c12` (stereo not shown) [Example 252, 5-(1-methoxyethyl)-N^2-(1-methylpiperidin-4-yl)pyrido[2,3-d]pyrimidine-2,4-diamine], the Emax fell in the range of 0 to 100% and the EC (100% of 200 uM G418 response) is above 100 µM.
In the case of `CNc1nc(NC2CNCC2C(F)F)nc2nc(C)cc(C)c12` (single isomer, unassigned) [Example 429], the pC100% result is given as “+++ (pC100% > 6.0 ≤ 7.0)”.
Regarding `Cc1cc(C)c2c(N)nc(NCC3CN(C(=O)OC(C)(C)C)C3)nc2n1` [Example 139], the Emax fell in the range of 100 to 3000% and the EC (100% of 200 uM G418 response) lay within 10 to 100 µM.
On the same counts, the results for `Cc1nc2nc(NC3CCN(C)CC3)nc(N)c2c(C)c1-c1cnn(C)c1` [Example 678] are 0 to 100% and above 100 µM.
For the compound `CNc1nc(N[C@H]2CNC[C@@H]2O)nc2nc(C)c3c(c12)CCC3` [Example 344], the EC (100% of 200 uM G418 response) was 0.01 to 0.1 µM.
On the same count and under the same terms, the value for `COc1ccccc1-c1ccc2c(N)nc(NC3CCN(C)CC3)nc2n1` [Example 50] was 1 to 10 µM.
In the case of `CN1CCC(Nc2nc(N)c3ccc(-c4ccc(CN)cc4)nc3n2)CC1` [Example 63], the Emax is 100 to 3000% and the EC (100% of 200 uM G418 response) was in the range of 1 to 10 µM.
On the same counts, the results for `Cc1cc(C)c2c(N)nc(N[C@@H]3CCN(Cc4ccc(C#N)cc4)C[C@@H]3F)nc2n1` [Example 575] are 100 to 3000% and 10 to 100 µM.
On the same counts, the results for `Cc1cc(C)c2c(N)nc(NC3CCN(Cc4ccc(C(F)F)cc4)CC3)nc2n1` [Example 485] are 100 to 3000% and 1 to 10 µM.
Consider `CN1CCC(Nc2nc(N)c3cc4c(nc3n2)CCC4)CC1` [Example 275], for which the EC (100% of 200 uM G418 response) is 1 to 10 µM.
As to `CN1CCC(Nc2nc(N)c3ccc(-c4cccc(F)c4)nc3n2)CC1` [Example 62], the Emax is 100 to 3000% and the EC (100% of 200 uM G418 response) lay in the range of 1 to 10 µM.
For the compound `CN1CCC(Nc2nc(N)c3ccc(-c4cccc(CO)c4)nc3n2)CC1` [Example 92], the Emax lay within 100 to 3000% and the EC (100% of 200 uM G418 response) is 10 to 100 µM.
On the same counts, the results for `CNc1ccc(-c2ccc3c(N)nc(NC4CCN(C)CC4)nc3n2)cc1` [Example 53] are 100 to 3000% and 1 to 10 µM.
In the case of `CCNc1nc(N[C@H]2CN(C)C[C@H]2F)nc2nc(C)cc(C)c12` [Example 395], the EC (100% of 200 uM G418 response) is 1 to 10 µM.
With `CNc1nc(N[C@H]2CN(C)C[C@@H]2O)nc2nc(C)c(Cl)c(C)c12` [Example 629], the EC (100% of 200 uM G418 response) fell in the range of 1 to 10 µM.
For the compound `CNc1nc(N[C@H]2CN(C3CC3)C[C@H]2F)nc2nc(C)cc(C)c12` [Example 519, N^2-((3S,4R)-1-cyclopropyl-4-fluoropyrrolidin-3-yl)-N^4,5,7-trimethylpyrido[2,3-d]pyrimidine-2,4-diamine], the Emax lay in the range of 0 to 100% and the EC (100% of 200 uM G418 response) is above 31.6 µM.
On the same counts, the results for `CNCc1cccc(-c2ccc3c(N)nc(NC4CCN(C)CC4)nc3n2)c1` [Example 109] are 100 to 3000% and 10 to 100 µM.
On the same counts, the results for `Cc1cc(C)c2c(N)nc(NCCN3CC4(COC4)C3)nc2n1` [Example 30, N^2-(2-(2-oxa-6-azaspiro[3.3]heptan-6-yl)ethyl)-5,7-dimethylpyrido[2,3-d]pyrimidine-2,4-diamine] are 100 to 3000% and 10 to 100 µM.
On the same counts, the results for `Cc1cc(C)c2c(N)nc(NCCN3CC(F)C3)nc2n1` [Example 163] are 100 to 3000% and 10 to 100 µM.
`Cc1nc2nc(NC3CCN(Cc4cc(F)cc(F)c4O)CC3)nc(N)c2c2c1CCC2` [Example 536]: the Emax fell in the range of 100 to 3000% and the EC (100% of 200 uM G418 response) is 1 to 10 µM.
On the same counts, the results for `CN1CCC(Nc2nc(N)c3c(C#N)ccnc3n2)CC1` [Example 250, 4-amino-2-((1-methylpiperidin-4-yl)amino)pyrido[2,3-d]pyrimidine-5-carbonitrile] are 0 to 100% and above 100 µM.
On the same counts, the results for `CNc1nc(N[C@@]2(C)CCN(C)C2)nc2nc(C)cc(C)c12` [Example 638] are 0 to 100% and above 31.6 µM.
On the same counts, the results for `CNc1nc(N[C@H]2CN(Cc3ccccc3)C[C@@H]2O)nc2nc(C)cc(C)c12` [Example 622] are 100 to 3000% and 1 to 10 µM.
With `Cc1cc(C)c2c(N)nc(N[C@H]3CCNC[C@@H]3C)nc2n1` [Example 641], the Emax lay within 100 to 3000% and the EC (100% of 200 uM G418 response) fell in the range of 10 to 100 µM.
On the same counts, the results for `CNc1c(C)c(NC2CCN(C)CC2)nc2nc(C)cc(C)c12` [Example 257, N^4,3,5,7-tetramethyl-N^2-(1-methylpiperidin-4-yl)-1,8-naphthyridine-2,4-diamine] are 0 to 100% and above 31.6 µM.
On the same counts, the results for `Cc1c2c(nc3nc(NC4CCN(Cc5ccccc5O)CC4)cc(N)c13)CCC2` [Example 680] are 100 to 3000% and 0.01 to 0.1 µM.
On the same counts, the results for `Cc1cnc2nc(NC3CCN(C)CC3)nc(N)c2c1` [Example 4, 6-methyl-N^2-(1-methylpiperidin-4-yl)pyrido[2,3-d]pyrimidine-2,4-diamine] are 100 to 3000% and 10 to 100 µM.
In the case of `CN1CCC(Nc2nc(N)c3ccc(-c4ccc(Cl)cc4)nc3n2)CC1` [Example 96], the EC (100% of 200 uM G418 response) was 10 to 100 µM.
Regarding `Cc1cc(C)c2c(N)nc(NC3C[C@H]4CC[C@@H](C3)N4C)nc2n1` (stereo partly shown) [Example 218], the Emax fell in the range of 100 to 3000% and the EC (100% of 200 uM G418 response) was 1 to 10 µM.
On the same counts, the results for `CN1CCC(Nc2nc(N)c3cc(-c4cncn4C)cnc3n2)CC1` [Example 643] are 0 to 100% and above 100 µM.
On the same counts, the results for `Cc1cc(C)c2c(N)nc(NC3CCN(Cc4ccno4)CC3)nc2n1` [Example 501] are 100 to 3000% and 10 to 100 µM.
In the case of `CC(=O)c1cnc2nc(NC3CCN(C)CC3)nc(N)c2c1` [Example 125, 1-{4-amino-2-[(1-methylpiperidin-4-yl)amino]pyrido[2,3-d]pyrimidin-6-yl}ethenone], the Emax lay within 0 to 100% and the EC (100% of 200 uM G418 response) was above 100 µM.
